Several values for one entry are separate records, joined by “and”; a condition that tells them apart may be missing. Equal values may be shown once. Read-outs that look alike come from different tables or passages of the source.
Key:
[1] = tested on: bacillus atrophaeus spores; details: 2.59 percent H2O2, slow speed, without cartons; for Log Red. (Avg): time 60 min relative to time zero
Procedure: (§1) Studies were conducted to determine the microbial eradication on mandrels 34 that were subjected to vaporized sterilant introduced at the heaters 40. […] The efficacy of the mandrel sterilization was studied for both the mandrel caps 35 and the mandrel side tubes 37 (see FIG. 3).
(§2) Each of the studies was further carried out using a testing media of bacillus atrophaeus spores for inoculating the mandrels. The mandrels were inoculated by spraying, using an aerating spray bottle having a solution with a concentration of about 7 log bacillus spores. The mandrels were then allowed to air dry. Controls were swabbed using cotton swabs to assure that the mandrels were properly inoculated. Following the machine operating period of the test, the mandrels were swabbed and the bacillus spores transferred to an agar media for incubation of the spores (at 32° C. for 48 hours) and subsequent recovery.
The data was collected by taking swab samples at the mandrel cap 35 (represented by C in the Table) and on the mandrel side tubes 37 (represented by T in the Table).

[2] = tested on: bacillus atrophaeus spores; details: 2.52 percent H2O2, with cartons; for average count of colony forming units for the time period / log of average count for the time period: mean of samples; for average count of colony forming units for the time period / log of average count for the time period / Log Red. (Avg): normal speed; for Average CFU/mL / Average CFU/mandrel / Log (of Average CFU/mandrel) / Result #1 CFU/mL / Result #2 CFU/mL: normal operating speed
Procedure: as §1, §2
The data was collected by taking swab samples at the mandrel cap (C) and on the mandrel side tubes (T). The mandrel side tube data is the sum of all of the side tubes.

[3] = time 60 min, swab site T (mandrel side tubes)
[4] = time 0 min, swab site C (mandrel cap)
[5] = time 0 min, swab site T (mandrel side tubes)
[6] = time 10 min, swab site C (mandrel cap)
[7] = time 10 min, swab site T (mandrel side tubes)
[8] = time 20 min, swab site C (mandrel cap)
[9] = time 20 min, swab site T (mandrel side tubes)
[10] = time 30 min, swab site C (mandrel cap)
[11] = time 30 min, swab site T (mandrel side tubes)
[12] = time 40 min, swab site T (mandrel side tubes)

## OO [hydrogen peroxide]
[1]; time 60 min, swab site C (mandrel cap)
  Result #2 CFU/mL: 8.40E+04 CFU/mL and 9.20E+04 CFU/mL
[1]; [3]
  Average CFU/mL: 1.87E+05 CFU/mL and 1.14E+05 CFU/mL
  Average CFU/mandrel: 7.46E+05 CFU/mandrel and 4.56E+05 CFU/mandrel
  Log (of Average CFU/mandrel): 5.87 Log and 5.66 Log
  Result 1 CFU/mL: 2.10E+05 CFU/mL and 1.20E+05 CFU/mL
  Result #2 CFU/mL: 1.63E+05 CFU/mL and 1.08E+05 CFU/mL
[1]; cap
  Log Red. (Avg): 0.17 Log
[1]; side tubes
  Log Red. (Avg): 0.05 Log
[2]; time 0 min, cap
  average count of colony forming units for the time period: 5.09E+05 CFU/mandrel
  log of average count for the time period: 5.71 log
[2]; time 0 min, side tubes
  average count of colony forming units for the time period: 7.12E+05 CFU/mandrel
  log of average count for the time period: 5.85 log
[2]; [4]
  Average CFU/mL: 1.32E+05 CFU/mL and 1.23E+05 CFU/mL
  Average CFU/mandrel: 5.28E+05 CFU/mandrel and 4.90E+05 CFU/mandrel
  Log (of Average CFU/mandrel): 5.72 Log and 5.69 Log
  Result #1 CFU/mL: 1.19E+05 CFU/mL and 1.30E+05 CFU/mL
  Result #2 CFU/mL: 1.45E+05 CFU/mL and 1.15E+05 CFU/mL
[2]; [5]
  Average CFU/mL: 1.83E+05 CFU/mL and 1.73E+05 CFU/mL
  Average CFU/mandrel: 7.32E+05 CFU/mandrel and 6.92E+05 CFU/mandrel
  Log (of Average CFU/mandrel): 5.86 Log and 5.84 Log
  Result #1 CFU/mL: 1.39E+05 CFU/mL and 1.71E+05 CFU/mL
  Result #2 CFU/mL: 2.27E+05 CFU/mL and 1.75E+05 CFU/mL
[2]; time 10 min, cap
  average count of colony forming units for the time period: 1.57E+05 CFU/mandrel
  log of average count for the time period: 5.20 log
[2]; time 10 min, side tubes
  average count of colony forming units for the time period: 3.58E+05 CFU/mandrel
  log of average count for the time period: 5.55 log
[2]; [6]
  Average CFU/mL: 3.35E+04 CFU/mL and 4.50E+04 CFU/mL
  Average CFU/mandrel: 1.34E+05 CFU/mandrel and 1.80E+05 CFU/mandrel
  Log (of Average CFU/mandrel): 5.13 Log and 5.26 Log
  Result #1 CFU/mL: 3.50E+04 CFU/mL and 4.40E+04 CFU/mL
  Result #2 CFU/mL: 3.20E+04 CFU/mL and 4.60E+04 CFU/mL
[2]; [7]
  Average CFU/mL: 9.25E+04 CFU/mL and 8.65E+04 CFU/mL
  Average CFU/mandrel: 3.70E+05 CFU/mandrel and 3.46E+05 CFU/mandrel
  Log (of Average CFU/mandrel): 5.57 Log and 5.54 Log
  Result #2 CFU/mL: 9.70E+04 CFU/mL and 6.70E+04 CFU/mL
[2]; time 10 min relative to time zero, cap
  Log Red. (Avg): 0.51 Log
[2]; time 10 min relative to time zero, side tubes
  Log Red. (Avg): 0.30 Log
[2]; time 20 min, cap
  average count of colony forming units for the time period: 8.86E+04 CFU/mandrel
  log of average count for the time period: 4.95 log
[2]; time 20 min, side tubes
  average count of colony forming units for the time period: 4.49E+05 CFU/mandrel
  log of average count for the time period: 5.65 log
[2]; [8]
  Log (of Average CFU/mandrel): 4.88 Log and 5.01 Log
  Result #1 CFU/mL: 1.93E+04 CFU/mL and 2.82E+04 CFU/mL
  Result #2 CFU/mL: 1.86E+04 CFU/mL and 2.25E+04 CFU/mL
[2]; [9]
  Average CFU/mandrel: 5.58E+05 CFU/mandrel and 3.40E+05 CFU/mandrel
  Log (of Average CFU/mandrel): 5.75 Log and 5.53 Log
[2]; time 20 min relative to time zero, cap
  Log Red. (Avg): 0.76 Log
[2]; time 20 min relative to time zero, side tubes
  Log Red. (Avg): 0.20 Log
[2]; time 30 min, cap
  average count of colony forming units for the time period: 4.39E+04 CFU/mandrel
  log of average count for the time period: 4.64 log
[2]; time 30 min, side tubes
  average count of colony forming units for the time period: 2.49E+05 CFU/mandrel
  log of average count for the time period: 5.40 log
[2]; [10]
  Average CFU/mandrel: 5.06E+04 CFU/mandrel and 3.72E+04 CFU/mandrel
  Log (of Average CFU/mandrel): 4.70 Log and 4.57 Log
  Result #2 CFU/mL: 1.12E+04 CFU/mL and 1.04E+04 CFU/mL
[2]; [11]
  Average CFU/mL: 6.25E+04 CFU/mL and 6.20E+04 CFU/mL
  Average CFU/mandrel: 2.50E+05 CFU/mandrel and 2.48E+05 CFU/mandrel
  Log (of Average CFU/mandrel): 5.40 Log and 5.39 Log
  Result #1 CFU/mL: 6.30E+04 CFU/mL and 5.10E+04 CFU/mL
  Result #2 CFU/mL: 6.20E+04 CFU/mL and 7.30E+04 CFU/mL
[2]; time 30 min relative to time zero, cap
  Log Red. (Avg): 1.06 Log
[2]; time 30 min relative to time zero, side tubes
  Log Red. (Avg): 0.46 Log
[2]; time 40 min, cap
  average count of colony forming units for the time period: 5.21E+03 CFU/mandrel
  log of average count for the time period: 3.72 log
[2]; time 40 min, side tubes
  average count of colony forming units for the time period: 1.15E+05 CFU/mandrel
  log of average count for the time period: 5.06 log
[2]; [12]
  Average CFU/mL: 2.71E+04 CFU/mL and 3.05E+04 CFU/mL
  Average CFU/mandrel: 1.08E+05 CFU/mandrel and 1.22E+05 CFU/mandrel
  Log (of Average CFU/mandrel): 5.04 Log and 5.09 Log
  Result #1 CFU/mL: 2.50E+04 CFU/mL and 2.89E+04 CFU/mL
  Result #2 CFU/mL: 2.92E+04 CFU/mL and 3.21E+04 CFU/mL
[2]; time 40 min relative to time zero, cap
  Log Red. (Avg): 1.99 Log
[2]; time 40 min relative to time zero, side tubes
  Log Red. (Avg): 0.79 Log
